This note sets out measurements from patent US7795222B2, “Methods for treating a corneal disorder and promoting skin wound healing” (Santen Pharmaceutical Co., Ltd., priority 2001, dated 2010).

This experiment relates to corneal epithelium. Put plainly: Action for extending corneal epithelium (in vitro), corneal blocks in tissue culture. In kind it is cell-based, male Japanese White rabbit. Conditions: for Extension ratio (%): 24 hours culture, control = 100%, mean of six sections; for influence on the extension of corneal epithelium: peptide alone; for activity in corneal epithelium extension test: in combination with substance P. The procedure: (1) Action For Extending Corneal Epithelium (In Vitro)
Using the cornea of a male Japanese White rabbit and according to the method of Nishida et al. (J. Cell Biol., 97, 1653-1657 (1983)), the length of corneal epithelium extension of the corneal section in a tissue culture system was used as a marker to examine the influence on corneal epithelium extension.
Corneal blocks cut off from rabbit corneal section (6 blocks per group) were cultured in culture media (TC-199) containing a test compound under conditions of 5% CO2 at 37° C. for 24 hours. After culturing, the corneal blocks were fixed in a mix solution of ethanol-glacial acetic acid (volume ratio: 95:5) and then embedded in paraffin to prepare sections. After paraffin was removed from the sections, the resulting sections were stained with hematoxylin-eosin to examine the extended length of the corneal epithelial cell layer with a microscope. As a control, the blocks cultured in the same manner in the culture media without any test compound were used.
Herein, the extension ratio in the table is the mean of six sections per group, as calculated when the elongated length of the control group was defined as the basal line (100%).

The mark [1] stands for this setting: test peptide 1 nM + substance P (20 μM).

Where no end group is shown, it is not given here.

Take Gly-Ser-Ser-Ser-Arg (GSSSR; Human): the “Extension ratio (%)” value by setting is: under setting [1], 135%; (test peptide alone, 1 nM) 101%.
On to “Substance P: polypeptide consisting of 11 amino acids (RPKPQQFFGLM-NH2; ends and bridges not checked; UniProt P20366 58-68, looked up) [reference compound]”, for which the “influence on the extension of corneal epithelium” value is given as “not observed to have any influence”. Also, the “Extension ratio (%)” value (test peptide alone, 20 μM) stood at 94%.
For Ser-Ser-Ser-Arg-Arg (SSSRR; Human), the “Extension ratio (%)” value is, setting by setting: under setting [1], 136%; (test peptide alone, 1 nM) 98%.
For the substance “GSSSRAAP (Human) [Gly-Ser-Ser-Ser-Arg-Ala-Ala-Pro]”, under setting [1], the “Extension ratio (%)” value is 150%.
Regarding “GYGSSSRRAPQT (Human) [Gly-Tyr-Gly-Ser-Ser-Ser-Arg-Arg-Ala-Pro-Gln-Thr, the peptide composing the domain C of IGF-I]”, the “activity in corneal epithelium extension test” value was “had the activity”. Also, under setting [1], the “Extension ratio (%)” value was 134%. In addition, for the setting “test peptide alone, 1 nM”, the “Extension ratio (%)” value worked out at 104%.
Consider GSSSRR, for which the “Extension ratio (%)” value is, setting by setting: under setting [1], 142%; (test peptide alone, 1 nM) 94%.
For the substance “GSSSRRAP (Human) [Gly-Ser-Ser-Ser-Arg-Arg-Ala-Pro]”, the “activity in corneal epithelium extension test” value was “the activity still remained”. Moreover, the “Extension ratio (%)” value under setting [1] was 140%. The “Extension ratio (%)” value (test peptide alone, 1 nM) is recorded as 97%.
In the case of “Phe-Gly-Leu-Met-NH2 (FGLM-NH2) [tetrapeptide on the C terminal of substance P, reference compound]”, the “influence on the extension of corneal epithelium” value is on record as “not observed to have any influence”. For the same substance, the “Extension ratio (%)” value (test peptide alone, 20 μM) was 99%.
On to “ASSSRRAP (Human) [Ala-Ser-Ser-Ser-Arg-Arg-Ala-Pro]”, for which the “Extension ratio (%)” value under setting [1] is 134%.
Regarding Ser-Ser-Ser-Arg (SSSR; Human), the “Extension ratio (%)” value runs as follows: (test peptide 1 nM + FGLM (20 μM)) 145%; under setting [1], 138%; (test peptide alone, 1 nM) 101%.
Turning to “GSSSRAAAP (Human) [Gly-Ser-Ser-Ser-Arg-Ala-Ala-Ala-Pro]”, the “Extension ratio (%)” value came to 139% under setting [1] and 100% (test peptide alone, 1 nM).
